Test [1] concerns the target Glutamate receptor ionotropic, kainate. Briefly: In vitro inhibition of [3H]KAIN binding to Ionotropic glutamate receptor kainate. Type of test: protein-complex assay.
Test [2] concerns the target Glutamate NMDA receptor. Briefly: In vitro inhibition of [3H]CPP binding to NMDA receptor. The test is classed as protein-complex assay.
The target in test [3] is T1, Glutamate receptor ionotropic, AMPA (Rattus norvegicus, UniProt P19490+P19491+P19492+P19493). Nature of the test: In vitro inhibition of [3H]AMPA binding to Ionotropic glutamate receptor AMPA. Type of test: protein-complex assay.
Test [4] has as its target T1, Glutamate receptor ionotropic, AMPA. Briefly: In vitro inhibition of [3H]CNQX binding to Ionotropic glutamate receptor AMPA. Type of test: protein-complex assay.
For test [5] the target is unchanged. Nature of the test: Inhibition of AMPA induced electrophysiological responses in rat cortical slices. The test is classed as functional.
For test [6], the species on record is Rattus norvegicus. Briefly: Inhibitory activity against antagonism of AMPA induced responses in rat cortical slices. Type of test: functional.

pIC50, pKi: −log10 of the molar value. Where only a bound is given, the exact number is not on record here.

The pIC50 is the IC50 on a negative log10 scale, so that one unit is a factor of ten. A low value points to a large IC50. As for `N#Cc1cc2c(cc1[N+](=O)[O-])=NC(=O)C(=O)N=2`, the pIC50 is 5.82 in test [1] and 4.60 in test [2].

On to `O=C(O)C1Cc2c(OCP(=O)(O)O)noc2CN1` (stereo unspecified), for which the pIC50 in test [3] is below 4.00; in test [4], below 4.00; in test [1] it was below 4.00; in test [2], 4.66.

Take `Cc1onc(OCP(=O)(O)O)c1CC(N)C(=O)O` (stereo unspecified): the pIC50 in test [3] was 4.51; in test [4] it was 5.16; in test [1], below 4.00; in test [2] it was below 4.00; in test [5], 4.22.

Consider `Cc1onc(OCC(=O)O)c1CC(N)C(=O)O` (stereo unspecified), for which the pIC50 was 5.10 in test [4] and 3.49 in test [6].

By pKi is commonly meant the Ki on a negative log10 scale, so that one unit is a factor of ten. Consider `O=C(O)[C@H]1CN(CCCP(=O)(O)O)CCN1`, for which the pIC50 in test [3] was below 4.00; in test [2], 7.30. For the same compound, the pKi in test [5] was 5.80.

In the case of `NC(Cc1c(OCC(=O)O)noc1-c1ccccc1)C(=O)O` (stereo unspecified), the pIC50 is below 4.00 in test [3]; below 4.00 in test [4]; below 4.00 in test [1]; below 4.00 in test [2]; below 3.00 in test [5].

Regarding `CCCCc1onc(OCC(=O)O)c1CC(N)C(=O)O` (stereo unspecified), the pIC50 was below 4.00 in test [3]; 4.06 in test [4]; below 4.00 in test [1]; below 4.00 in test [2]; below 3.00 in test [5].

For `CC(C)(C)c1onc(OCC(=O)O)c1CC(N)C(=O)O` (stereo unspecified), the pIC50 in test [3] is 4.48; in test [4] it was 4.92; in test [1] it was below 4.00; in test [2], below 4.00; in test [5] it was 3.82.

Turning to `CCCCc1onc(OCP(=O)(O)O)c1CC(N)C(=O)O` (stereo unspecified), the pIC50 was below 4.00 in test [3]; 4.74 in test [4]; below 4.00 in test [1]; below 4.00 in test [2]; 3.85 in test [5].

For the compound `NC(Cc1cc(OCC(=O)O)no1)C(=O)O` (stereo unspecified), the pIC50 in test [3] is below 4.00; in test [4], below 4.00; in test [1], below 4.00; in test [2], below 4.00; in test [5] it was below 3.00.

In the case of `CC(C)(C)Cc1onc(OCP(=O)(O)O)c1CC(N)C(=O)O` (stereo unspecified), the pIC50 in test [3] was below 4.00; in test [4], 4.46; in test [1], below 4.00; in test [2], below 4.00; in test [5] it was below 3.00.

For `NC(Cc1c(OCP(=O)(O)O)noc1-c1cccs1)C(=O)O` (stereo unspecified), the pIC50 in test [3] is below 4.00; in test [4] it was below 4.00; in test [1] it was below 4.00; in test [2], below 4.00; in test [5], 3.44.

For `NC(Cc1c(OCC(=O)O)noc1-c1cccs1)C(=O)O` (stereo unspecified), the pIC50 in test [3] was below 4.00; in test [4], below 4.00; in test [1] it was below 4.00; in test [2], below 4.00; in test [5] it was below 3.00.

Consider `NC(Cc1cc(OCP(=O)(O)O)no1)C(=O)O` (stereo unspecified), for which the pIC50 in test [3] was below 4.00; in test [4], below 4.00; in test [1] it was below 4.00; in test [2], below 4.00; in test [5] it was below 3.00.

For the compound `CCCC(CCC)c1onc(OCC(=O)O)c1CC(N)C(=O)O` (stereo unspecified), the pIC50 in test [3] is below 4.00; in test [4] it was 4.20; in test [1], below 4.00; in test [2], below 4.00; in test [5] it was below 3.00.

Take `NC(Cc1c(OCP(=O)(O)O)noc1-c1ccccc1)C(=O)O` (stereo unspecified): the pIC50 was below 4.00 in test [3]; below 4.00 in test [4]; below 4.00 in test [1]; below 4.00 in test [2]; below 3.00 in test [5].

As for `CC(C)(C)c1onc(OCP(=O)(O)O)c1CC(N)C(=O)O` (stereo unspecified), the pIC50 in test [1] and in test [2] was below 4.00 throughout.

In the case of `CC(C)(C)Cc1onc(OCC(=O)O)c1CC(N)C(=O)O` (stereo unspecified), the pIC50 in test [3] was below 4.00; in test [4], below 4.00; in test [1], below 4.00; in test [2] it was below 4.00; in test [5] it was below 3.00.

For the compound `CCCC(CCC)c1onc(OCP(=O)(O)O)c1CC(N)C(=O)O` (stereo unspecified), the pIC50 in test [3] is below 4.00; in test [1], below 4.00; in test [5], 3.46.

The record behind these values is ChEMBL document CHEMBL1129553, “Synthesis and pharmacology of highly selective carboxy and phosphono isoxazole amino acid AMPA receptor antagonists” (J Med Chem, 1996).
